The test system of data set [1] is SARS-CoV-2 (USA_WA1/2020). Put plainly: microbe, parasite or virus in culture. Format: cell-based.
The next data set is described as follows: in vitro. The note with it: African green monkey.
[2] abbreviates: Severe acute respiratory syndrome coronavirus 2, Vero C1008, SARS-CoV-2 CPE assay, Vero E6 cells, confirmed anti-SARS-CoV-2 compounds, read-out: CPE EC50.
Where [3] appears, read: Severe acute respiratory syndrome coronavirus 2, Vero C1008, SARS-CoV-2 CPE assay, Vero E6 cells, efficacy, read-out: CPE % Efficacy.
The mark [4] stands for this setting: Severe acute respiratory syndrome coronavirus 2, Vero C1008, SARS-CoV-2 CPE assay, Vero E6 cells, read-out: CPE % Efficacy.
Setting [5] is: Severe acute respiratory syndrome coronavirus 2, Vero C1008, SARS-CoV-2 CPE assay, Vero E6 cells, read-out: CPE EC50.
[6] abbreviates: Severe acute respiratory syndrome coronavirus 2, Vero C1008, read-out: CPE % Efficacy.

Counter-ions that a name gives are not always drawn. Like-named read-outs stand apart in the source and are kept apart here.

For orientation: EC50 means the concentration giving half of the maximal effect. For the compound `CC(=O)OC[C@]12C[C@H](OC(=O)CC(C)C)C(C)=C[C@H]1O[C@@H]1[C@H](O)[C@@H](O)[C@@]2(C)[C@]12CO2` [HT-2 Toxin], the “CPE % Efficacy” value in data set [1] is on record as 32.4%. Further, the EC50 in data set [1] (read-out: CPE EC50) came to 0.0226 µM. Moreover, in “in vitro”, the CC50 is 0.13 µM and the cytotoxicity is 98%.
`CCn1c(-c2nonc2N)nc2cnc(Oc3cccc(NC(=O)c4ccc(OCCN5CCOCC5)cc4)c3)cc21` [GSK-269962A]: the EC50 in data set [1] (setting [2]) turned out to be 7.94 µM. In data set [1] (setting [3]), the Emax was determined as 41.8%. In the data set “in vitro”, the CC50 came to 2 µM and the cytotoxicity was 56.8%.
Take `CN(C)CCCN1c2ccccc2CCc2ccc(Cl)cc21` [Clomipramine hydrochloride]: in data set [1] (setting [3]), the Emax came to 91.6%. Besides, in the data set “in vitro”, the cytotoxicity was 33.2%.
As for `CSc1ccc(C(=O)/C=C/c2cc(C)c(OC(C)(C)C(=O)O)c(C)c2)cc1` [Elafibranor], the Emax in data set [1] (setting [4]) was 55.7%. In data set [1] (setting [5]), the EC50 was 19.9 µM. This compound also came in with a cytotoxicity at 72 h in “in vitro” of 0%.
As for `Oc1c(Cl)cc(Cl)c2cccnc12` [Chloroxine], in data set [1] (setting [2]), the EC50 was 11.2 µM. For the same compound, in data set [1] (setting [3]), the Emax came out at 64.9%. Moreover, in the data set “in vitro”, the CC50 amounted to 7.08 µM and the cytotoxicity came out at 61.5%.
On to `CC(CN1c2ccccc2Sc2ccc(S(=O)(=O)N(C)C)cc21)N(C)C` (centres unmarked) [Fonazine], for which, in data set [1] (setting [2]), the EC50 was determined as 11.2 µM. Further, the Emax in data set [1] (setting [3]) turned out to be 36.6%. Besides, the cytotoxicity at 72 h in the data set “in vitro” was 0%.
For `O=c1ccc2ccc(OCCCCN3CCN(c4cccc5sccc45)CC3)cc2[nH]1` [Brexpiprazole], the Emax in data set [1] (setting [4]) was 94.9%. In data set [1] (setting [5]), the EC50 turned out to be 14.1 µM. In the data set “in vitro”, this compound displayed a CC50 of 11.2 µM and a cytotoxicity of 25.1%.
For `CC/C(=C(\c1ccccc1)c1ccc(OCCN(C)C)cc1)c1ccccc1` [Tamoxifen], in data set [1] (setting [3]), the Emax stood at 102%. The compound also returned a cytotoxicity in “in vitro” of 93.9%.
Regarding `CN1CCC(c2cn(C)c3ccc(OS(=O)(=O)c4c(F)cccc4F)cc23)CC1` [SGS 518], in data set [1] (setting [4]), the Emax amounted to 101%. In addition, in data set [1] (setting [5]), the EC50 was found to be 12.6 µM. In the data set “in vitro”, this compound came in with a CC50 of 8.91 µM and a cytotoxicity of 18.2%.
For the compound `CN(C)CCOC(C)(c1ccccc1)c1ccc(Cl)cc1` (centres unmarked) [Chlorphenoxamine], in data set [1] (setting [2]), the EC50 stood at 6.31 µM. For the same compound, the Emax in data set [1] (setting [3]) is 75.3%. In the data set “in vitro”, this compound came in with a CC50 at 72 h of 11.2 µM and a cytotoxicity at 72 h of 36.9%.
With `OCCOc1ccc(/C(=C(/CCCl)c2ccccc2)c2ccccc2)cc1` [Ospemifene], the Emax in data set [1] (setting [6]) came to 48.2%. For the same compound, the EC50 in data set [1] (Severe acute respiratory syndrome coronavirus 2, Vero C1008, read-out: CPE EC50 (uM)) stood at 12.6 µM. In the data set “in vitro”, this compound registered a CC50 of 12.6 µM and a cytotoxicity of 26.6%.
With `COc1cc(C(C)=O)ccc1OCCCN1CCC(c2noc3cc(F)ccc23)CC1` [Iloperidone], in data set [1] (setting [4]), the Emax was 108%. In addition, in data set [1] (setting [5]), the EC50 stood at 12.6 µM. Also, in the data set “in vitro”, the CC50 at 72 h amounted to 15.8 µM and the cytotoxicity at 72 h was determined as 16.4%.
As for `Oc1ccc(-c2nc(-c3ccncc3)c(-c3ccc(F)cc3)[nH]2)cc1` [SB-202190], the EC50 in data set [1] (setting [2]) came to 3.98 µM. Besides, the Emax in data set [1] (setting [3]) is 95.8%. Also, in the data set “in vitro”, the cytotoxicity at 72 h amounted to 62.4%.
As to `CC(CN1c2ccccc2Sc2ccccc21)N(C)C` (centres unmarked) [Promethazine], the EC50 in data set [1] (setting [2]) was found to be 11.2 µM. Also, the Emax in data set [1] (setting [3]) is 94%. In “in vitro”, this compound displayed a CC50 at 72 h of 15.8 µM and a cytotoxicity at 72 h of 15.4%.
As to `NC(=O)c1cccc2cn(-c3ccc([C@@H]4CCCNC4)cc3)nc12` [Niraparib], the Emax in data set [1] (setting [6]) came out at 134%. Further, the EC50 in data set [1] (Severe acute respiratory syndrome coronavirus 2, Vero C1008, read-out: CPE EC50) amounted to 11.2 µM. In “in vitro”, the CC50 is 15.8 µM and the cytotoxicity amounted to 24.3%.
With `Cc1ccc(NC(=O)c2ccc(CN3CCN(C)CC3)cc2)cc1Nc1nccc(-c2cccnc2)n1` [Imatinib, reference compound], in data set [1] (Severe acute respiratory syndrome coronavirus 2, Vero C1008, […], DMSO 0%, no-virus control 100%, hit confirmation, read-out: CPE % efficacy), the Emax came to 119%. In “in vitro”, this compound had a cytotoxicity below 30%.
For `O[C@H]1[C@H]2c3cc4c(cc3CN3CCC(=C[C@@H]1O)[C@H]23)OCO4` [Lycorine hydrochloride], in data set [1] (setting [2]), the EC50 was determined as 0.63 µM. In addition, the Emax in data set [1] (setting [3]) was determined as 34.6%. In the data set “in vitro”, this compound displayed a CC50 of 3.55 µM and a cytotoxicity of 90.6%.

Source of the values: PMC7942396, “Drug Repurposing Screen for Compounds Inhibiting the Cytopathic Effect of SARS-CoV-2” (Frontiers in Pharmacology, 2021).
